No end group written: not given here.
How the values were obtained:
[1] = system: RAW 264.7 macrophages; assay: IL-6 production by PAM3CSK4-stimulated RAW 264.7 macrophages; assay type: cell-based, mouse
Description: The ability of free MyD88 inhibitor T6167923 (Br) or T6167923 (SH) in solution to attenuate pro-inflammatory cytokine production by macrophages treated with PAM3CSK4 was assessed (FIG. 12A). When macrophages were treated with PAM3CSK4, IL-6 production increased (p<0.01) by 3-fold. […] Comparing the two inhibitors at 100 μM, T6167923 (Br) had attenuated IL-6 production by 89%, while T6167923 (SH) had attenuated IL-6 product by 58%.
Inhibitor Preparation and Synthesis: 200 μM stock solutions of T6167923 (Br) and T6167923 (SH) were prepared by first dissolving the inhibitors in 100 μL anhydrous DMSO, then adding dropwise to 9.9 mL culture medium and sterile filtering. The stock solution was then serially diluted in additional cell culture medium to make treatment concentrations. The inhibitor-PEG-peptide molecule was synthesized as follows. Bromoacetamido-dPEG12-TFP ester (36 mg) was added to 400 μL anhydrous DMSO and stirred in an amber vial to dissolve. T6167923 (SH) (17.65 mg) was dissolved in 100 μL anhydrous DMSO before being added dropwise to the amber vial. After 20 minutes of stirring, 1.5 mL of 50 mM sodium bicarbonate buffer, pH 8.4 was slowly added to the vial and the reaction was continued for an additional 20 minutes. Triglycine (8.6 mg) was combined with 2 mL of 50 mM sodium bicarbonate buffer, pH 8.4, then added dropwise to the reaction mixture in the amber vial with stirring. The reaction progressed overnight, then the product was purified by dialysis with 100-500 MWCO tubing against DI water. The reaction was monitored by consumption of sulfhydryls and primary amines. The product was sterile filtered and then lyophilized.
Cell Culture: RAW 264.7 cells were cultured in DMEM with 10% FBS and 1% penicillin/streptomycin at 37° C. and 5% CO2. Depending on the experiment, cells were seeded in tissue culture polystyrene (TCPS) well plates ([…]) or on hydrogels at 625,000 cells/cm^2 and allowed to adhere overnight. For transwell experiments, a transwell with a hydrogel was inserted into the well after the cells were allowed to adhere. For the (T6167923 (Br), T6167923 (SH)), and inhibitor-PEG-peptide studies, cells were treated with inhibitor for a specified period of time. To do this, medium was aspirated from the well and replaced with inhibitor-containing DMEM. Control conditions included cells only and cells plus 1% anhydrous DMSO by volume. After a specified period of culture time, PAM3CSK4 was added at 50 ng/ml and the cells were cultured for a prescribed period of time. Medium was collected and flash frozen for ELISA. […]
(§1) Protein Assays: Cell culture medium was thawed on ice. IL-6 in the culture media was quantified using an ELISA. MMP-12 production in culture media was measured per kit instructions. […]

[2] = target: T1, human MMP-12 (Homo sapiens, UniProt P39900); assay: Cleavage of hydrogel-tethered tryptophan peptides by MMP-12; assay type: biochemical; conditions: role: substrate; 5 nM activated MMP-12, 285 nm; p<0.001
T1 construct: purchased R&D Systems
Description: To test the cleavability of the chosen peptides by MMP-12, the sequences were modified with tryptophan residues, tethered to PEG hydrogels at 5 μM concentration, and exposed to 5 nM MMP-12 in buffer. First, the maleimide of acrylate-PEG-maleimide (MW 3,400 g/mol) was reacted with the cysteine residue contained in the peptide sequence to create a PEG-conjugated peptide with tryptophan at one end and an acrylate group at the other. This product was then combined with PEGDA monomer and photoinitiator in PBS and photopolymerized, yielding a gel (FIG. 14C). The release of the tryptophan-containing cleaved portion of the sequence was monitored by measuring buffer absorbance at 285 nm over time (FIG. 14D).
For the release studies, acrylate-PEG-maleimide (6.8 mg) was reacted with peptide (GWGPLGLEEACG [SEQ ID NO. 2] or GWGPLGLARCG [SEQ ID NO. 1], 5 mM) in 500 μL dry DMF for 30 minutes with stirring. PEGDA (100 mg) was then added to the reaction mixture and vortexed to combine. Irgacure 2959 was added as photoinitiator in dry DMF (6 mg/mL). This precursor solution was gelled between glass slides with a 1 mm spacer under UV light for 45 minutes. The resulting 20 wt % hydrogel was soaked in ultrapure water to rinse away DMF followed by additional rinses in TCNB assay buffer (50 mM Tris, 10 mM CaCl2, 150 mM NaCl, 0.05% (w/v) Brij-35, pH 7.5).
Tryptophan Release: Peptide-conjugated hydrogels swollen in TCNB assay buffer were punched to 5 mm diameter and placed in wells of a 96-well clear, flat bottom well plate (n=4 gels for each peptide). Human MMP-12 was reconstituted in 10 mM MES, 0.1 M NaCl, 100 μM CaCl2, 0.1% (w/v) CHAPS, 1 μM ZnSO4, 0.1% (w/v) PEG, pH 6.0 buffer to 0.25 mg/mL. It was then diluted to 50 μg/mL with TCNB assay buffer and activated by adding 100 mM APMA in DMSO to 1 mM final concentration and incubating at 37° C. for 24 hours. […] At each time point, 2 μL supernatant was removed from each well and spectrophotometrically measured on the Nanodrop at 285 nm. […]

[3] = system: RAW 264.7 macrophages; assay: MMP-12 secretion by RAW 264.7 macrophages (ELISA); assay type: cell-based, mouse; conditions: PAM3CSK4 50 ng/ml, 8 h
Description: RAW 264.7 macrophages were cultured in serum-free (1% ITS) media (FIG. 14A) or serum-containing medium (10% FBS) (FIG. 14(B)) and treated or not with PAM3CSK4 (50 ng/ml), then their secretion of MMP-12 over the 8-hour period was evaluated by ELISA. Macrophages with (p<0.01) and without (p<0.001) PAM3CSK4 stimulation secreted MMP-12 when cultured in the serum-free media, with average levels of 245 and 556 μg/mL, respectively. In serum-containing media, the production of MMP-12 was on average 178 μg MMP-12/mL (p<0.01 relative to blank) in unstimulated cells. […] Unstimulated cells in the same media secreted MMP-12. MMP-12 production by the cells was higher in ITS media than in FBS media.
Cell Culture: RAW 264.7 cells were cultured in DMEM with 10% FBS and 1% penicillin/streptomycin at 37° C. and 5% CO2. Depending on the experiment, cells were seeded in tissue culture polystyrene (TCPS) well plates ([…]) or on hydrogels at 625,000 cells/cm^2 and allowed to adhere overnight. For transwell experiments, a transwell with a hydrogel was inserted into the well after the cells were allowed to adhere. […]
as §1

T1 sequence (P39900 106-470): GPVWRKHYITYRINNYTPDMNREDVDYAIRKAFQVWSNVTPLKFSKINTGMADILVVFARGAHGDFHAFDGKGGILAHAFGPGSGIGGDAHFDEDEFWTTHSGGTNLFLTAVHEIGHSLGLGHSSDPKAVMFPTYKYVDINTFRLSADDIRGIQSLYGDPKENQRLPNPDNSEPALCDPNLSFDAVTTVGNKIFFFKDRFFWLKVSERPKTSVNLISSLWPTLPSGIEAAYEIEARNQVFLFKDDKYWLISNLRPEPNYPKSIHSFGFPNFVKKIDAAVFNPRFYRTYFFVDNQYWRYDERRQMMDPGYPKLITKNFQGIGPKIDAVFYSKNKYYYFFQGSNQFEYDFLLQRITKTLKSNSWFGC

Compound: C[C@H](NC(=O)N1CCN(S(=O)(=O)c2cccc(Br)c2)CC1)c1cccs1 [T6167923 (Br)]
- attenuation of IL-6 production ([1]; 100 μM inhibitor, PAM3CSK4 50 ng/ml): 89%
- dose dependence of IL-6 attenuation ([1]; PAM3CSK4 50 ng/ml): a dose-dependent response was observed
- inhibitor concentrations at which IL-6 was significantly lower than untreated PAM3CSK4-stimulated cells ([1]; PAM3CSK4 50 ng/ml): 50 to 200 µM

Compound: GWGPLGLARCG [SEQ ID NO. 1]: MMP-12 cleavable peptide, tryptophan modified, tethered to PEG hydrogel (also: tethered to PEG hydrogel)
- cleavage by MMP-12 (tryptophan cumulative release) [2]: cleaved by the MMP-12
- rate of cleavage by MMP-12 relative to the longer peptide (SEQ ID NO. 2) [2]: slightly faster rate

Compound: GWGPLGLEEACG [SEQ ID NO. 2]: MMP-12 cleavable peptide, tryptophan modified, tethered to PEG hydrogel (also: tethered to PEG hydrogel)
- cleavage by MMP-12 (tryptophan cumulative release) [2]: cleaved by the MMP-12

Compound: PAM3CSK4
- increase in IL-6 production ([1]; PAM3CSK4 treatment vs unstimulated, no inhibitor, p<0.01): 3 -fold
- MMP-12 levels compared to blank (no cells) ([3]; serum-containing medium (10% FBS)): not statistically different to the blank
- MMP-12 secretion ([3]; serum-free (1% ITS) media, p<0.01 vs blank): 245 µg/mL
